Values quoted from earlier work, collected in patent US20090105195A1, “COMPOSITION COMPRISING MICROBICIDAL ACTIVE INGREDIENTS” (priority 2007, published 2009).

Key:
Settings in all cases: at low amounts, such as 0.025%
[1] = test system: Human Papilloma Virus (HPV)
[2] = test system: Herpes Simplex Virus
[3] = test system: Human Immunodeficiency Virus

CCCCCCCCCCCCOS(=O)(=O)[O-].[Na+] [SLS, sodium lauryl sulfate]
complete inactivation: inactivation of Human Papilloma Virus (HPV) [1] | inactivation of Herpes Simplex Virus [2] | inactivation of Human Immunodeficiency Virus [3]
